Test results reported in patent publication US6979732B1, “Polynucleotide compositions encoding S-adenosyl-L-methionine:phosphoethanolamine N-methyltransferase and methods for modulating lipid biosynthesis in plants” (University of Florida, priority 2000, dated 2005).
Blank lines part the entries; values can stand above or below the molecule they belong to.

Key:
PEAMT [1] = molecular target: T1, PEAMT (Spinacia oleracea, UniProt Q9M571); test: PEAMT activity assay with extracts of S. pombe Bx22 cells expressing recombinant wild type PEAMT; format: biochemical; settings: for inhibition of PEAMT activity (in words): metabolite at 2 mM
T1 construct: The PEAMT cDNA comprises a 494-residue open reading frame; made in house; host or cells: Schizosaccharomyces pombe Bx22 (leu1 cho2-) carrying pREP3-PEAMT; desalted crude extract, not purified
T1 sequence (Q9M571 1-494): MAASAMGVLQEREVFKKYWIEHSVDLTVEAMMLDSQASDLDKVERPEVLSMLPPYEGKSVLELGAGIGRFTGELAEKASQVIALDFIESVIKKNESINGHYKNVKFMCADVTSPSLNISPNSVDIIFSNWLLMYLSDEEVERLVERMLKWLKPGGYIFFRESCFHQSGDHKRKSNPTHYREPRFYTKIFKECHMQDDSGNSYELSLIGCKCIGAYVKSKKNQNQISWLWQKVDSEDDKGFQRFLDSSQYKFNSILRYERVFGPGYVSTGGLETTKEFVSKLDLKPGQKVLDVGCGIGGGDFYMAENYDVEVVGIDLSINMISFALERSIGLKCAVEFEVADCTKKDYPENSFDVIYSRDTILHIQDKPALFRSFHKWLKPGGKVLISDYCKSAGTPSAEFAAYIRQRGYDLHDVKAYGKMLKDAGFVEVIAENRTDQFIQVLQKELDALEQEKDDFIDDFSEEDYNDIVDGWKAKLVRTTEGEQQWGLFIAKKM
Protocol: Cells were grosn to an OD600 of ≈1 in 50 ml of medium at 30° C., shaking at 250 rpm. […] Subsequent operations were at 0-4° C. Cells were harvested by centrifugation (5000×g, 10 min), washed twice with water and once with 100 mM HEPES-KOH, pH 7.8, resuspended in 0.5 ml of lysis buffer (100 mM HEPES-KOH, pH 7.8, 2 mM Na2EDTA, 5 mM dithiothreitol, 10% glycerol) and transferred to 2-ml microfuge tubes containing ≈1.5 g of acid-washed glass beads (425-600 μm). Cells were broken by vortexing at maximum speed for 2 min. The brei was centrifuged (16,000×g, 2 min), the supernatant was removed and the beads were washed with 3×1 ml of lysis buffer. The combined supernatants were clarified by centrifugation (16,000×g, 15 min) and desalted on a PD-10 column (Amersham Pharmacia Biotech, Piscataway, N.J.) equilibrated with storage buffer (10 mM HEPES-KOH, pH 7.8, 2 mM Na2EDTA, 5 mM dithiotreitol, 10% glycerol). The extract was aliquotted, frozen in liquid N2 and stored at […]. Spinach leaf extracts were prepared as described (Summers and […], 1993). Protein was determined using the Bio-Rad dye reagent (Hercules, Calif.). Native molecular mass was estimated using a Waters 626 HPLC system (Milford, Mass.) equipped with a Superdex 200 HR 10/30 column (Amersham Pharmacia Biotech) as described ([…] al., 1995). PEAMT activity was measured by a modification of published methods (Datko and Mudd, 1988b; Summers and […], 1993), under conditions in which product formation was proportional to enzyme concentration and time. […] Reactions were stopped by adding 1 ml of ice-cold water; each was applied to a 1-ml AG-50 (HR^+) column held at 4° C. and the assay tube was rinsed with 1 ml of water, which was also applied to the column. Products were eluted with 10 ml of 0.1 N HCl, and 2 ml of the eluate was mixed with 3 ml of Ready Gel scintillation fluid (Beckman, Palo Alto, Calif.) and counted. For assay blanks, enzyme was omitted during incubation and added just before the ion exchange step.

ΔPEAMT = molecular target: T2, ΔPEAMT (Spinacia oleracea, UniProt Q9M571); test: PEAMT activity assay with extracts of S. pombe Bx22 cells expressing truncated ΔPEAMT; format: biochemical
T2 construct: made in house; host or cells: Schizosaccharomyces pombe Bx22 (leu1 cho2-) carrying pREP3-ΔPEAMT; desalted crude extract, not purified
T2 sequence (Q9M571 with tags, fused parts or gaps): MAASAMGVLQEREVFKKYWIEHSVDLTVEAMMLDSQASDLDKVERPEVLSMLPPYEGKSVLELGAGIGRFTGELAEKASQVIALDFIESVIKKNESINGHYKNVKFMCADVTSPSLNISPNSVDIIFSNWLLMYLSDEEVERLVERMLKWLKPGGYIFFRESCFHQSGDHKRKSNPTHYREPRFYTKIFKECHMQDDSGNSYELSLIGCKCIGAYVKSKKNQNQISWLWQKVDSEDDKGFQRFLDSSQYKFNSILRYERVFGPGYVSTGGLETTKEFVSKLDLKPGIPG
Protocol: The plasmid encoding PEAMT, designated pREP3-PEAMT, was digested with BamHI and end-polished with T4 DNA polymerase. The 3'-sequence of PEAMT was removed by digestion with MscI; the remaining sequence plus vector was gel-purified and religated to give ΔPEAMT. In ΔPEAMT the native coding sequence terminates at […], and the pREP3 polylinker adds the sequence […] to the carboxyl-terminus. Cells were grosn to an OD600 of ≈1 in 50 ml of medium at 30° C., shaking at 250 rpm. […] Subsequent operations were at 0-4° C. Cells were harvested by centrifugation (5000×g, 10 min), washed twice with water and once with 100 mM HEPES-KOH, pH 7.8, resuspended in 0.5 ml of lysis buffer (100 mM HEPES-KOH, pH 7.8, 2 mM Na2EDTA, 5 mM dithiothreitol, 10% glycerol) and transferred to 2-ml microfuge tubes containing ≈1.5 g of acid-washed glass beads (425-600 μm). Cells were broken by vortexing at maximum speed for 2 min. The brei was centrifuged (16,000×g, 2 min), the supernatant was removed and the beads were washed with 3×1 ml of lysis buffer. The combined supernatants were clarified by centrifugation (16,000×g, 15 min) and desalted on a PD-10 column (Amersham Pharmacia Biotech, Piscataway, N.J.) equilibrated with storage buffer (10 mM HEPES-KOH, pH 7.8, 2 mM Na2EDTA, 5 mM dithiotreitol, 10% glycerol). The extract was aliquotted, frozen in liquid N2 and stored at […]. Spinach leaf extracts were prepared as described (Summers and […], 1993). Protein was determined using the Bio-Rad dye reagent (Hercules, Calif.). Native molecular mass was estimated using a Waters 626 HPLC system (Milford, Mass.) equipped with a Superdex 200 HR 10/30 column (Amersham Pharmacia Biotech) as described ([…] al., 1995). PEAMT activity was measured by a modification of published methods (Datko and Mudd, 1988b; Summers and […], 1993), under conditions in which product formation was proportional to enzyme concentration and time. […] Products were eluted with 10 ml of 0.1 N HCl, and 2 ml of the eluate was mixed with 3 ml of Ready Gel scintillation fluid (Beckman, Palo Alto, Calif.) and counted. […]

PEAMT [2] = molecular target: T1, PEAMT; test: AdoMet:EA N-methyltransferase activity assay of the complemented strain; format: biochemical; settings: complemented strain extract
Protocol: (§1) AdoMet:EA N-methyltransferase activity was assayed as above except that reactions contained 200 nmol EA and 160 nmol (40 nCi) of [methyl-^14C]AdoMet. The [methyl-^14C]AdoMet was removed by treating with activated charcoal and centrifuging (Cook and Wagner, 1984), and ^14C-incorporation into freebase products was measured by counting a sample of the supernatant. […] For assay blanks, EA was omitted. AdoMet:Ptd-EA N-methyltransferase activity was measured essentially as described (Datko and Mudd, 1988b). Assays (final volume 100 μl) contained 9 μl 10X assay buffer, 0.8 nmol (47 nCi) [methyl-^14C]AdoMet, 10 μl of a Ptd-EA emulsion in 1× assay buffer (10 mg ml^−1, sonicated for 3×30 sec), and enzyme extract; incubation was for 30 min at 30° C. The phospholipid fraction was isolated for ^14C quantification as described (Datko and Mudd, 1988b) except that the methanol:chloroform:water proportions were 12:5:1 (vol./vol./vol.). Data were corrected for the ^14C incorporation in control assays containing extract from Bx22 cells.

PEAMT [3] = molecular target: T1, PEAMT; test: AdoMet:Ptd-EA N-methyltransferase activity assay of the complemented strain; format: biochemical; settings: complemented strain extract
Protocol: as §1

[4] = substrate: NCCOP(=O)(O)O; test: PEAMT activity assay with extracts of S. pombe Bx22 cells expressing recombinant wild type PEAMT; format: biochemical, Spinacia oleracea; settings: other: recombinant PEAMT, substrate
Protocol: Cells were grosn to an OD600 of ≈1 in 50 ml of medium at 30° C., shaking at 250 rpm. […] Subsequent operations were at 0-4° C. Cells were harvested by centrifugation (5000×g, 10 min), washed twice with water and once with 100 mM HEPES-KOH, pH 7.8, resuspended in 0.5 ml of lysis buffer (100 mM HEPES-KOH, pH 7.8, 2 mM Na2EDTA, 5 mM dithiothreitol, 10% glycerol) and transferred to 2-ml microfuge tubes containing ≈1.5 g of acid-washed glass beads (425-600 μm). Cells were broken by vortexing at maximum speed for 2 min. The brei was centrifuged (16,000×g, 2 min), the supernatant was removed and the beads were washed with 3×1 ml of lysis buffer. The combined supernatants were clarified by centrifugation (16,000×g, 15 min) and desalted on a PD-10 column (Amersham Pharmacia Biotech, Piscataway, N.J.) equilibrated with storage buffer (10 mM HEPES-KOH, pH 7.8, 2 mM Na2EDTA, 5 mM dithiotreitol, 10% glycerol). […] Protein was determined using the Bio-Rad dye reagent (Hercules, Calif.). […] PEAMT activity was measured by a modification of published methods (Datko and Mudd, 1988b; Summers and […], 1993), under conditions in which product formation was proportional to enzyme concentration and time. […] Products were eluted with 10 ml of 0.1 N HCl, and 2 ml of the eluate was mixed with 3 ml of Ready Gel scintillation fluid (Beckman, Palo Alto, Calif.) and counted. […]

[5] = 3-hr incubation, small quantity of P-EA, 5-fold excess of [methyl-14C]AdoMet

reduction of PEAMT activity (PEAMT [1]; 2 mM P-Cho, 50 nmol P-EA, 170 nmol [methyl-14C]AdoMet, 10 min): 80% | inhibition at 10000 µM (PEAMT [1]; 10 mM P-Cho, saturating P-EA concentration, read-out: reduction (inhibition) of PEAMT activity): 95%
Molecule: C[N+](C)(C)CCOP(=O)([O-])O [P-Cho, phosphocholine]
sensitivity of ΔPEAMT to P-Cho compared with the wild-type enzyme (ΔPEAMT; 10 mM P-Cho, P=0.05): retaining twice as much of its initial activity

inhibition of PEAMT activity (in words) (PEAMT [1]): not inhibitory
Molecule: C[N+](C)(C)CC(=O)[O-] [GlyBet, glycine betaine]

inhibition of PEAMT activity (in words) (PEAMT [1]): not inhibitory
Molecule: CNCCO [MME]

activity with EA as substrate (PEAMT [2]): < 1 pkat mg^−1 protein
Molecule: NCCO [EA, ethanolamine]

activity with Ptd-EA as substrate (PEAMT [3]): < 1 pkat mg^−1 protein
Molecule: phosphatidylethanolamine [Ptd-EA]

PEAMT activity in the absence of P-Cho (PEAMT [1]; 25 μg protein, 10 min, 50 nmol P-EA, 170 nmol AdoMet): 737±18 pkat mg^−1 protein | reaction product (PEAMT [1]; [5]): almost solely [^14C]P-Cho | specific activity of PEAMT in extracts of complemented cells relative to spinach leaves (PEAMT [1]; FIG. 2A): up to 80 fold | pH optimum of PEAMT activity (PEAMT [1]; recombinant PEAMT): 8.1-8.5
Molecule: S-adenosyl-L-methionine:phosphoethanolamine N-methyltransferase [PEAMT]

Molecule: CN(C)CCO [DME]
inhibition of PEAMT activity (in words) (PEAMT [1]): not inhibitory

Molecule: C[S+](CC[C@H](N)C(=O)[O-])C[C@H]1O[C@@H](n2cnc3c(N)ncnc32)[C@H](O)[C@@H]1O (stereo partly drawn) [AdoMet, S-adenosyl-L-methionine]
Km (PEAMT [1]; recombinant PEAMT, substrate): 140 µM

PEAMT activity in the absence of P-Cho (ΔPEAMT; 50 μg protein, 10 min, 50 nmol P-EA, 170 nmol AdoMet): 200±10 pkat mg^−1 protein | reaction product (ΔPEAMT; [5]): only [^14C]P-MME
B1: ΔPEAMT: truncated spinach PEAMT; native coding sequence terminates at Gly-286, plus Ile Pro Gly; SEQ ID NO:4 (protein, listed as Spinacia oleracea)
chain: T2 sequence (Q9M571 with tags, fused parts or gaps)

B2: PEAMT (Spinacia oleracea) (protein)
chain: T1 sequence (Q9M571 1-494)
notes: The PEAMT cDNA comprises a 494-residue open reading frame; made in house; host or cells: Schizosaccharomyces pombe Bx22 (leu1 cho2-) carrying pREP3-PEAMT; desalted crude extract, not purified
Km [4]: 96 µM
